The values below come from patent publication US10975114B2, “Bis 2′-5′-RR-(3′F-A)(3′F-A) cyclic dinucleotide compound and uses thereof” (ADURO BIOTECH, INC., priority 2017, dated 2021).

Structures are written as SMILES.

Test [1] has as its target T1, REF allele hSTING (Homo sapiens, UniProt Q86WV6).
T1 construct: 6xHis-SUMO (with TEV site) (N, cleaved yes); made in house; host or cells: Rosetta2 (DE3) E. coli
Nature of the test: DSF Tm shift, purified hSTING REF allele (AA140-379). Conditions: 1 mg/ml STING AA140-379, ligand 1 mM. The class given is binding. The procedure: (§1) Cells were grown in lysogeny broth at 37° C. until a […] absorbance of 0.6 was reached. […] Cells were lysed using an S-450D sonifier (Emmerson industrial) on ice. […] Protein was aliquoted, flash frozen in liquid nitrogen and stored at −80° C. until use.
(§2) The protein is heated in the presence of a dye that binds to and fluoresces in hydrophobic environments. The protein is thermally denatured by heating resulting in increased dye binding to the unfolded protein and fluorescence. The temperature midpoint (Tm) of a proteins denaturation is established by calculating the half maximal value of the denaturation curve. The temperature midpoint of the protein in the presence of a ligand is directly related to the affinity of the ligand for the protein and therefore its ability to stabilize the protein at higher temperatures.

Test [2] deals with T2, HAQ allele hSTING (Homo sapiens, UniProt Q86WV6, G230A/H232R/R293Q).
T2 construct: 6xHis-SUMO (with TEV site) (N, cleaved yes); made in house; host or cells: Rosetta2 (DE3) E. coli
Put plainly: DSF Tm shift, purified hSTING HAQ allele (AA140-379). Format: binding. Conditions: 1 mg/ml STING AA140-379, ligand 1 mM. The procedure: as §1, §2

Test [3] relates to THP1 cells (hSTING HAQ allele). Nature of the test: THP1-Dual IRF-3 luciferase reporter assay without digitonin. Format: cell-based, human. Conditions: 30 min compound incubation, overnight readout of secreted luciferase. How it is done: Cells were washed with fresh media and incubated for 30 min at 37° C. with 5% CO2 with compounds in 3-fold titration steps from 2,000 to 0.0338 μM in PB buffer (50 mM 4-(2-hydroxyethyl)-1-piperazineethanesulfonic acid, 100 mM KCl, 3 mM MgCl2, 0.1 mM dithiothreitol, 85 mM sucrose, 1 mM ATP, 0.1 mM GTP and 0.2% bovine serum albumin). After 30 minutes, cells were washed and fresh RPMI media containing 10% FBS was added, and cells were incubated at 37° C. with 5% CO2. Cell culture supernatants from each sample were collected after overnight incubation, and 10 μl of the cell culture supernatants was added to 50 μl QUANTI-Luc reagent (Invivogen). Type I interferon activation was determined by measuring secreted luciferase levels on a SpectraMax M3 spectrophotometer (Molecular Devices). The EC50 value for the same compounds as tested in Example 4 was determined from the dose-response curve for the 10 concentrations from the serial dilution of the compounds in this assay.
(In general: A reporter such as luciferase makes a cellular process visible.)

Test [4] concerns the target T3, wild type hSTING (Homo sapiens, UniProt Q86WV6, H232R).
T3 construct: 6xHis-SUMO (with TEV site) (N, cleaved yes); made in house; host or cells: Rosetta2 (DE3) E. coli
Nature of the test: DSF Tm shift, purified hSTING WT (AA140-379). Format: binding. Conditions: 1 mg/ml STING AA140-379, ligand 1 mM. The procedure: as §1, §2

The target of test [5] is T4, hSTING REF allele (Homo sapiens, UniProt Q86WV6).
T4 construct: made in house; host or cells: BL21 Rosetta 2 (DE3) E. coli
Nature of the test: ITC binding assay, hSTING REF allele. The conditions noted are these: 25° C., protein 0.1 mM, ligand 0.35 mM. How it is done:
(§3) The WT and REF proteins were similarly prepared for use in an ITC binding assay. Expression plasmids were transformed into BL21 Rosetta 2 (DE3) (EMD Millipore) E. coli cells for protein expression. 50 ml starter cultures were grown overnight in 2×YT supplemented with 50 μg/ml kanamycin and 30 μg/ml chloramphenicol. Multi-liter large scale cultures of the same growth media as the starter were inoculated at a ratio of 1:1,000 (V/V) and allowed to grow at 37° C. to an optical density of 0.6, cultures were then shifted to 18° C. Protein expression was induced by the addition of isopropyl β-D-1-thiogalactopyranoside to a final concentration of 0.3 mM. Protein expression was allowed to proceed for 18-24 hrs. Pelleted cells were resuspended in 50 mM Tris pH 7.5, 500 mM NaCl, 10% glycerol, 20 mM imidazole, 1 mM TCEP and complete protease inhibitor cocktail (Sigma). Cells were lysed by sonication (Branson) and insoluble material was removed by centrifugation. Proteins were purified on Ni-NTA resin and concentrated to >10 mg/ml. 6×H-SUMO-STING LBD was further purified by gel filtration chromatography using a High Load 26/600 Superdex 75 column (GE Healthcare) in a buffer of 20 mM Tris pH 7.5, 150 mM NaCl, 5% glycerol and 1 mM TCEP. Peak fractions were concentrated to between 10-15 mg/ml via ultrafiltration aliquoted and flash frozen in liquid nitrogen and stored at […]
The resulting amino acid sequences for the STING REF allele is as follows: • Allele Name: REF • Amino Acid Sequence:
(§4) Proteins were dialyzed overnight in 20 mM HEPES pH 7.5, 150 mM NaCl. Insoluble material was removed by centrifugation at 31,000×g. The invention compound 2′2′-RR-(3′F-A)(3′F-A) and comparison STING agonists 3′3′-RR-(2′F-A)(2′F-A); 2′3′-RR-(3′F-A)(2′F-A) were resuspended in dialysis buffer. The concentration of both the protein and ligands were checked by spectroscopy and adjusted if necessary.
(§5) STING protein was added to the ITC sample cell at a final concentration of 0.1 mM. The CDN ligand was at a final concentration of 0.35 mM in the syringe. […]

In test [6] the target is T5, hSTING WT (Homo sapiens, UniProt Q86WV6, H232R).
T5 construct: made in house; host or cells: BL21 Rosetta 2 (DE3) E. coli
Put plainly: ITC binding assay, hSTING WT. Conditions: 25° C., protein 0.1 mM, ligand 0.35 mM. How it is done: as §3
The resulting amino acid sequence for the STING WT allele is as follows: • Allele Name: WT • Amino Acid Sequence:
as §4, §5

As usually defined, the EC50 is the concentration that produces a half-maximal response. High values mean weaker potency, low ones greater potency. Take `Nc1ncnc2c1ncn2[C@@H]1O[C@@H]2CO[P@@](=O)(S)O[C@@H]3[C@H](O)[C@@H](CO[P@@](=O)(S)O[C@@H]1[C@@H]2O)O[C@H]3n1cnc2c(N)ncnc21` [2′2′-RR-(A)(A), (1R,3R,6R,8R,9R,11R,14R,16R,17R,18R)-8,16-bis(6-amino-9H-purin-9-yl)-17,18-dihydroxy-3,11-dimercapto-2,4,7,10,12,15-hexaoxa-3,11-diphosphatricyclo[12.2.1.1^6,9]octadecane 3,11-dioxide]: the “hSTING Tm Shift REF” value in test [1] was 3.6 °C. Further, in test [2], the “hSTING Tm Shift HAQ” value was determined as 5.1 °C. In test [3] (Homo sapiens, THP-1, 0.5 h), the EC50 was above 150 µM. In test [4], the “hSTING Tm Shift WT” value is 3.4 °C.
As to `Nc1nc2c(ncn2[C@@H]2O[C@@H]3COP(=O)(O)O[C@H]4[C@@H](O)[C@H](n5cnc6c(N)ncnc65)O[C@@H]4COP(=O)(O)O[C@@H]2[C@@H]3O)c(=O)[nH]1` [2′3′-(G)(A)], in test [3], the EC50 is above 150 µM.
In general, Kd refers to the free concentration of one partner at which half of the binding sites on the other are occupied at equilibrium, for simple one-to-one binding. Read a low Kd as a tighter complex. As for `Nc1ncnc2c1ncn2[C@@H]1O[C@@H]2CO[P@@](=O)(S)O[C@@H]3[C@H](F)[C@@H](OC[P@@](=O)(S)O[C@H]2[C@H]1F)O[C@H]3n1cnc2c(N)ncnc21` [2′3′-RR-(3′F-A)(2′F-A), dithio-[Rp,Rp]-cyclic-[3′F-A(2′,5′)p-2′F-A(3′,5′)p]], the “hSTING Tm Shift REF” value in test [1] came out at 10.5 °C. Also, the Kd in test [5] was 333 nM; in test [6], 109 nM. For the same molecule, in test [2], the “hSTING Tm Shift HAQ” value is 26 °C. Also, the EC50 in test [3] (Homo sapiens, THP-1, 0.5 h) turned out to be 4.5 µM. In test [4], the “hSTING Tm Shift WT” value turned out to be 14.5 °C.
On to `Nc1ncnc2c1ncn2[C@@H]1O[C@@H]2CO[P@@](=O)(S)O[C@H]3[C@@H](F)[C@H](n4cnc5c(N)ncnc54)O[C@@H]3CO[P@@](=O)(S)O[C@H]2[C@H]1F` [3′3′-RR-(2′F-A)(2′F-A), (2R,3R,3aR,5R,7aR,9R,10R,10aR,12R,14aR)-2,9-bis(6-amino-9H-purin-9-yl)-3,10-difluoro-5,12-dimercaptooctahydro-2H,7H-difuro[3,2-d:3′,2′-j][1,3,7,9]tetraoxa[2,8]diphosphacyclododecine 5,12-dioxide], for which the Kd in test [5] worked out at 591 nM; in test [6], 74 nM. The same molecule had an EC50 in test [3] (Homo sapiens, THP-1, 0.5 h) of 15.6 µM.
